According to patent publication US8981046B2, “Synthetic cell platforms and methods of use thereof” (The Regents of the University of California, priority 2007, dated 2015):

Experiments:
[1] = system: neural stem cells; test: qRT-PCR marker expression / differentiation of NSCs on peptide-modified hydrogels; format: cell-based, rat
Description: Stem cells are defined not only by their self-renewal but also their ability to undergo differentiation into one or more phenotypes. […] Therefore, the synthetic IPN, displaying an integrin-binding peptide, was able to substitute for laminin in supporting NSC proliferation and differentiation.
The effects of varying peptide identity and density on NSC differentiation were explored.
The box plots summarize the distribution of points, where the thick line signifies the median and the ends of the box are the 25th and 75th quartiles.

[2] = system: H1 hES cells; test: H1 hES cell culture on peptide-conjugated IPN surfaces in NC-SFM; format: cell-based, human; conditions: for hESC culture outcome (Oct4, survival): H1 cells, NC-SFM, peptide-conjugated IPN
Protocol: To take an important step towards a fully chemically defined microenvironment, H1 hES cells were cultured,^17 for which a serum-free, defined medium has been developed. In addition, this feeder-free system involves culturing cells on tissue culture polystyrene coated with Matrigel, an ECM mixture of predominantly […], collagen IV, and heparan sulfate.^19, 82 Cells were grown in non-conditioned, serum free medium (NC-SFM), which consists of X-VIVO 10 (Cambrex, Walkersville, Md.) medium supplemented with 0.5 ng/mL TGF-β1 and 80 ng/mL FGF-2 (Invitrogen).
Cultures on Matrigel consisted of Oct4^+ hESC colonies interspersed with differentiated, Oct4-stromal cells derived from the hESCs, as previously described (note that the hESCs can be selectively passaged by timing the enzymatic digest).^82 H1 cells were also cultured in the NC-SFM on bsp-RGD(15) conjugated IPN surfaces (identical to those in FIGS. 3-4). […] Both HSF6 cells on the sIPN (FIG. 7) and H1 cells on the IPN were able to maintain Oct4 expression for 3 passages (˜10 days).

[3] = system: Akt; test: Akt activation in neural stem cells on peptide hydrogels (Western blotting); format: cell-based, rat; conditions: NSCs on biomimetic hydrogel
Description: The phosphoinositide-3 kinase (PI 3-kinase) signaling pathway, which can be activated by numerous cell surface receptors, has been implicated in regulating cell survival and proliferation in a number of contexts.^90-92 After ligation and activation of canonical receptors, phosphorylation of receptor tails on specific tyrosine residues recruits PI 3-kinase to the cell surface to phosphorylate phosphoinositide lipids. These lipids then recruit several kinases, including PDK1 and Akt. Phosphorylation of the latter by the former activates Akt, which then modulates a number of downstream effectors (such as Bad, mTOR, forkhead transcription factors, GSK-3β, and others) important in cell survival, proliferation, and other functions.^92, 93 Very importantly, PI 3-kinase and Akt signaling may be a general pathway important for stem cell proliferation and self-renewal. […] Finally, chemical or genetic inhibition of this pathway inhibits self-renewal, whereas overexpression of transducers in this pathway promotes self-renewal in a mitogen-independent fashion.
FIG. 8. […] Likewise relocalization of a PH-GFP genetic sensor to the cell surface acts as a sensor of PI 3-kinase signal activation after FGF-2 addition. An analogous genetic sensor of Akt based on FRET has been generated.^6

[4] = system: neural stem cells; test: NSC proliferation on peptide-grafted IPNs after 5 days (Cyquant); format: cell-based, rat; conditions: for cell proliferation: Cyquant, normalized to cells seeded
Description: Cell proliferation was quantified on peptide-grafted IPN surfaces after 5 days with Cyquant. The cell number was normalized to the amount of cells seeded on the IPN surfaces.

[5] = system: neural stem cells; test: NSC adhesion and proliferation on peptide-modified IPNs; format: cell-based, rat
Description: Neural stem cells are typically cultured on surfaces consisting of a poly(styrene)-based material with a passively adsorbed, animal-derived extracellular matrix (ECM) protein such as laminin or fibronectin.^67, 69 However, both animal- and human-derived ECM or proteins likely contain variable splice and glycoforms, offer limited micro- and nano-scale control of solid-phase signaling, pose problems with lot to lot variability, and otherwise present problems for therapeutic application.^16, 70 The ability of a peptide-modified interpenetrating polymer network (IPN) synthesized from acrylamide (AAm), poly(ethylene glycol) monomethyl ether monomethacrylate (pEGMA), and acrylic acid (AAc) monomers to support NSC growth was explored. NSCs isolated from the adult rat hippocampus,^67 were seeded onto 15 amino-acid bone sialoprotein RGD peptide [bsp-RGD(15)]-modified IPNs at various cell densities over four orders of magnitude.
FIG. 3.a-d) Bright field images of neural stem cells grown on peptide-modified IPNs or laminin-I in proliferating media conditions (1.2 nM FGF-2). e) Growth curves for proliferation of neural stem cells as assayed by a total nucleic acid stain. Data represent mean±standard deviation of 3-5 samples. Surfaces not in the same group (*, §, †, or ‡) were statistically different from one another (p<0.05; ANOVA between groups with Tukey-Kramer Honestly Significant Difference post-hoc test).

[6] = system: neural stem cells; test: Initial NSC attachment on peptide-grafted IPNs (Cyquant, 6 hours); format: cell-based, rat; conditions: various grafting concentrations
Protocol: IPNs were grafted with RGD, 7C-9, and 7C-24 peptides at various concentrations. After allowing neural stem cells attach to the surface for 6 hours, the amount of cells was quantified with Cyquant, a fluorescent DNA-binding dye.

[7] = system: neural stem cells; test: Flow cytometry binding of clonal peptide-displaying bacteria to neural stem cells; parameters: species or system rat; conditions: clonal bacterial populations after third round of selection
Description: This technology has also been used to identify peptides capable of binding to the surface of adult neural stem cells. Both N- and C-terminal peptide display libraries were screened on NSCs, with the first two rounds selected through centrifugal pelleting of NSCs to isolate bacterial clones displaying binding peptides, and the third round selected through FACS. Following the third round, numerous peptide clones were sequenced (˜30 novel sequences determined to date).
Three different, validated peptide libraries were pooled to generate a large library (>10^10 independent clones) and were used for selection and screening.^79 These libraries include a random 15-mer (—X15—) fused to either the N- or C-terminus of the CPX display scaffold and an N-terminal constrained library of the form X2CX7CX2. The library has been made intrinsically fluorescent using a bicistronic expression vector to enable co-expression of a green fluorescent protein optimized for FACS.
The bacterial library was screened for binding peptides. For the first two cycles, screening was again conducted by co-sedimentation, where as many as 10^8 NSCs suspended via mechanical disruption in 0.5 mM EDTA as described^82 were incubated with 10^10 bacteria prior to several gentle centrifugations and rinses. The resulting mixture was added directly to bacterial media (LB) for expansion of the binding clones. The second cycle repeated this process with 10-fold fewer bacteria for higher stringency. In the third cycle, after incubation with 10^6 NSCs and washing, cells were sorted (as in FIGS. 5-6) using a DAKO-Cytomation MoFlo flow cytometer in the UC Berkeley Cancer Center to stringently isolate bacteria that are bound to NSCs. The resulting sorted bacteria were expanded. Plasmid DNA was isolated from a number of individual clones (at least 100)^79 and subjected to DNA sequencing to identify the peptide responsible for binding to the NSC surface.
Bacterial peptide display libraries were constructed, as described above, and tested for binding capacity to neural stem cells. Clonal populations of the bacterial peptide display libraries after the third round of selection were analyzed via flow cytometry to measure the binding capacity of the clones. Sequences of the clones were determined through DNA sequence of the plasmid expressed by the bacteria. Table 5 presents amino acid sequences of peptides and the binding capacity to NSCs of bacterial clones displaying the peptides.

[8] = peptide hydrogel vs laminin, proliferating or differentiating media

Sequence | % NSCs with Bacteria [7] | further results
CGGNGEPRGDTYRAY [bsp-RGD(15), 15 amino-acid bone sialoprotein RGD peptide] | – | nestin expression (qRT-PCR) ([1]; 21 pmol·cm^−2 peptide hydrogel vs laminin, 1.2 nM FGF-2): statistically indistinguishable levels of nestin; GFAP expression (qRT-PCR) [1, 8]: equal levels; β-tubulin III expression (qRT-PCR) [1, 8]: equal levels; maintenance of Oct4 expression ([2]; H1 cells on the IPN (~10 days)): 3 passages; hESC culture outcome (Oct4, survival) [2]: high Oct4 levels in large hESC colonies; activation of Akt [3]: activation of Akt to a greater extent than a surface displaying the negative control bsp-RGE(15) peptide; cell proliferation [4]: much higher amount of cell proliferation than 7C-9 and 7C-24-grafted surfaces; NSC proliferation ([5]; highest peptide density, vs laminin-coated surfaces, p<0.05): slightly faster cell proliferation than standard laminin-coated surfaces; cell adhesion on IPN with lower peptide density ([5]; lower or no bsp-RGD(15), proliferating media): cells did not adhere effectively
CGGNGEPRGETYRAY [bsp-RGE(15), negative control peptide] | – | neuronal differentiation / neuronal marker expression ([1]; as bsp-RGD(15) density was decreased and this peptide increased): neuronal differentiation decreased; hESC culture outcome (Oct4, survival) [2]: cells predominantly died; cell attachment [6]: below the detection limit of the assay; cell proliferation [4]: little or no cells detached; cell adhesion and morphology on peptide-modified IPN ([5]; proliferating media conditions (20 ng/ml FGF-2)): did not support attachment
DHKFGLVMLNKYAYAG [Clone 15-2] | 75.9% | –
DLCTYGHLWLGNGRP [Clone 15-59] | 22.5% | –
ESCWYQIMYKCAN [Clone 7C-2] | 55.2% | –
ESGLKVMCMKYYCMA [Clone 15-52] | 63.3% | –
FWCIRGEYWVCDR [Clone 7C-12] | 64.5% | –
GECFYYVMNTCVW [Clone 7C-6] | 61.8% | –
GFVLVWSYTCRCWGK [Clone 15-50] | 64.9% | –
GGCRWYAKWVCVW [Co-3] | 75.7% | –
IWCGSRFGCWCKP [Clone 7C-5] | 65.6% | –
KLCCFDKGYYCMR [Clone 7C-9] | 71.3% | cell proliferation at similar surface peptide concentration ([4]; low peptide surface concentrations, vs RGD surfaces): slower proliferation
LCCESYICALCHY [Clone 7C-11] | 37.7% | –
LECPGESKYYCIY [Co-11] | 72.7% | –
LECTERGDFNCFV [Clone 7C-7] | 47.8% | –
LEDAMGWALSWGHIW [Clone 15-6] | 70.2% | –
LNCAMYNACIW [Clone 7C-14] | 54.5% | –
LVCNRQNPWVCYI [Co-23] | 71.1% | –
MYCERDSKYWCIH [Co-21] | 70.9% | –
QCCQLRGDAVCNC [Clone 7C-15] | 54.0% | –
QGCAFVTYWACIF [Co-16] | 71.9% | –
RLCCWKTQYFCEI [Co-20] | 70.9% | –
RRELVRMTDWVWVSG [Clone 15-32] | 70.4% | –
SDWSVLLSCERWYCI [Clone 15-16] | 63.9% | –

Sequence | % NSCs with Bacteria [7] | further results
SKCWGWTPYYCVA [Co-9] | 75.7% | –
SLCAAYNRWACIW [Co-1] | 73.8% | –
STCSWVSSYVCIM [Co-13] | 64.8% | –
VWCGMFGKRRCVT [Co-22] | 75.6% | –
WDCGKKNAWMCIW [Co-5] | 67.4% | –
WECAEESKFWCVF [Co-17] | 72.1% | –
WFCLLGRSAYCVR [Clone 7C-3] | 71.9% | –
WLCKGSNKYMCEW [Clone 7C-17] | 67.8% | –
WLCLDKNCMACVW [Clone 7C-8] | 68.8% | –
WMCSGVQPNACVW [Clone 7C-22] | 46.9% | –
WNCIKGSSWACVW [Clone 7C-21] | 75.5% | –
WQCGRFWCIHCLW [Co-19] | 50.6% | –
WRCLGDGYHACVR [Co-10] | 72.7% | –
WSCPKVNQYACFW [Co-2] | 74.8% | –
WTWESAFAGRWEVGD [Co-8] | 61.7% | –
WVCIWERFKSCNE [Clone 7C-20] | 65.7% | –
WVCLWRHRGDCSI [Co-12] | 74.3% | –
WVCNDLIHHFCVW [Co-15] | 70.9% | –
WVCNKLGVYACEY [Clone 7C-19] | 20.5% | –
WWCDMRGDSRCSG [Clone 7C-24] | 61.7% | –
WWCKKPEYWYCIW [Co-18] | 71.3% | –
WYCFRENKYVCVM [Clone 7C-1] | 75.2% | –
YMCMSRGDATCDV [Clone 7C-4] | 62.0% | –
